System: Recombinant human cathepsin A
Test: Cathepsin A inhibitory activity (Bodipy FL-bradykinin substrate, microfluidic capillary electrophoresis)
Type: biochemical
Details: read-out: CATH A IC50

Structure (SMILES)	IC50 [nM]
COc1ccc(C(C)(C)C)cc1-c1cc(F)cc(C(CC(=O)O)c2ncc(C)s2)c1 (stereo not shown) [compound 113]	124
COc1ccc(OC(F)(F)F)cc1-c1cncc(C(CC(=O)O)c2nnc(C)o2)c1 (stereo not shown) [compound 197]	4760
COc1cccc(OC)c1-c1cc(F)cc(C(CC(=O)O)c2ncc(C)s2)c1 (stereo not shown) [compound 7]	5
COc1cc(C(N)=O)ccc1-c1cccc(C(CC(=O)O)c2nccs2)c1 (stereo not shown) [compound 45]	1380
CCOc1ccccc1-c1cc(Cl)cc(C(CC(=O)O)c2ncc(C)s2)c1 (stereo not shown) [compound 80]	47
COc1ccc(C(C)(C)C)cc1-c1cccc([C@@H](CC(=O)O)c2nccs2)c1 [compound 6]	3380
COc1ccc(OC)c(-c2cccc(C(CC(=O)O)c3ncc(C)s3)c2)c1OC (stereo not shown) [compound 52]	56
CCOc1ccc(C)cc1-c1cccc(C(CC(=O)O)c2nccs2)c1 (stereo not shown) [compound 25]	147
CCOc1ccc(C)cc1-c1cc(Cl)cc(C(CC(=O)O)c2ncc(C)s2)c1 (stereo not shown) [compound 86]	65
COc1ccc(C(C)(C)C)cc1-c1cccc(C(CC(=O)O)c2nnc(C)o2)c1 (stereo not shown) [compound 9]	61
COc1cc(F)ccc1-c1cc(Cl)cc(C(CC(=O)O)c2ncc(C)s2)c1 (stereo not shown) [compound 90]	119
COc1ccc(F)cc1-c1ccc(OC)c(C(CC(=O)O)c2ncc(C)s2)c1 (stereo not shown) [compound 63]	1170
COc1ccc(C(C)(C)C)cc1-c1cc(C(CC(=O)O)c2nnc(C)o2)cc(C(F)(F)F)c1 (stereo not shown) [compound 203]	17
COc1cc(C(N)=O)ccc1-c1cc(Cl)cc(C(CC(=O)O)c2ncc(C)s2)c1 (stereo not shown) [compound 89]	118
COc1ccc(CO)cc1-c1cccc(C(CC(=O)O)c2nccs2)c1 (stereo not shown) [compound 33]	333
COc1cc(C)cc(OC)c1-c1cc(Cl)cc(C(CC(=O)O)c2nnc(C)o2)c1 (stereo not shown) [compound 155]	8
COc1cc(C)cc(OC)c1-c1cccc(C(CC(=O)O)c2ncc(C)s2)c1 (stereo not shown) [compound 15]	44
COc1cccc(F)c1-c1cc(Cl)cc(C(CC(=O)O)c2ncc(C)s2)c1 (stereo not shown) [compound 71]	16
COc1ccc(C(C)C)cc1-c1cccc(C(CC(=O)O)c2nccs2)c1 (stereo not shown) [compound 2]	132
COc1ccc(OC(F)(F)F)cc1-c1cc(F)cc(C(CC(=O)O)c2ncc(C)s2)c1 (stereo not shown) [compound 124]	275
COc1ccc(OC)c(-c2cc(Cl)cc(C(CC(=O)O)c3ncc(C)s3)c2)c1 (stereo not shown) [compound 76]	28
COc1ccc(C(C)C)cc1-c1cccc(C(CC(=O)O)c2ncc(C)s2)c1 (stereo not shown) [compound 56]	97
COc1ccc(C)cc1-c1cccc(C(CC(=O)O)c2nnc(C)o2)c1 (stereo not shown) [compound 136]	24
COc1cccc(C#N)c1-c1cccc(C(CC(=O)O)c2nnc(C)o2)c1 (stereo not shown) [compound 152]	652
COc1ccc(F)cc1-c1cccc(C(CC(=O)O)c2ncc(C)s2)c1 (stereo not shown) [compound 55]	96
COc1ccc(C)cc1-c1cc(F)cc(C(CC(=O)O)c2ncc(C)s2)c1 (stereo not shown) [compound 100]	52
COc1c(F)cc(F)cc1-c1cc(F)cc(C(CC(=O)O)c2ncco2)c1 (stereo not shown) [compound 129]	457
COc1cccc(OC(C)C)c1-c1cccc(C(CC(=O)O)c2nccs2)c1 (stereo not shown) [compound 28]	165

Structure (SMILES)	IC50 [nM]
COc1ccc(C(C)(C)C)cc1-c1cccc([C@@H](CC(=O)O)c2ncco2)c1 [compound 11]	51
Cc1nnc(C(CC(=O)O)c2cc(F)cc(-c3ccccc3OC(F)(F)F)c2)o1 (stereo not shown) [compound 165]	231
COc1ccccc1-c1cc(C(CC(=O)O)c2nnc(C)o2)cc(C(F)(F)F)c1 (stereo not shown) [compound 217]	13
COc1cccc(-c2cccc(C(CC(=O)O)c3nccs3)c2)c1OC (stereo not shown) [compound 41]	950
COc1c(-c2cccc(C(CC(=O)O)c3nccs3)c2)cccc1C(F)(F)F (stereo not shown) [compound 49]	7000
COc1ccc(-c2cncc(C(CC(=O)O)c3nnc(C)o3)c2)c(OC)c1 (stereo not shown) [compound 194]	7140
COc1ccc(Cl)cc1-c1cccc(C(CC(=O)O)c2nnc(C)o2)c1 (stereo not shown) [compound 50]	108
CCOc1ccccc1-c1cc(Cl)cc(C(CC(=O)O)c2nnc(C)o2)c1 (stereo not shown) [compound 177]	24
COc1cccc(CO)c1-c1cc(Cl)cc(C(CC(=O)O)c2ncc(C)s2)c1 (stereo not shown) [compound 82]	52
COc1ccc(OC(F)(F)F)cc1-c1cc(C(CC(=O)O)c2nnc(C)o2)cc(C(F)(F)F)c1 (stereo not shown) [compound 213]	51
CCOc1ccccc1-c1cc(F)cc(C(CC(=O)O)c2nnc(C)o2)c1 (stereo not shown) [compound 175]	104
COc1ccc(OC)c(-c2cncc(C(CC(=O)O)c3nnc(C)o3)c2)c1 (stereo not shown) [compound 180]	3520
COc1ccccc1-c1cc(Cl)cc(C(CC(=O)O)c2nnc(C)o2)c1 (stereo not shown) [compound 176]	10
CCOc1ccc(C)cc1-c1cc(F)cc(C(CC(=O)O)c2ncco2)c1 (stereo not shown) [compound 117]	155
COc1ccc(-c2cccc(C(CC(=O)O)c3nnc(C)o3)c2)c(OC)c1 (stereo not shown) [compound 147]	137
COc1cc(C)cc(OC)c1-c1cc(Cl)cc(C(CC(=O)O)c2ncc(C)s2)c1 (stereo not shown) [compound 74]	19
COc1cccc(C(=O)N2CCCC2)c1-c1cc(F)cc(C(CC(=O)O)c2nnc(C)o2)c1 (stereo not shown) [compound 174]	5260
COc1ccc(S(C)(=O)=O)cc1-c1cc(F)cc(C(CC(=O)O)c2nnc(C)o2)c1 (stereo not shown) [compound 178]	588
COc1cccc(OC)c1-c1cc(C(CC(=O)O)c2nnc(C)o2)cc(C(F)(F)F)c1 (stereo not shown) [compound 205]	2
COc1c(Cl)cccc1-c1cc(Cl)cc(C(CC(=O)O)c2ncc(C)s2)c1 (stereo not shown) [compound 92]	134
CC(C)Oc1ccccc1-c1cccc(C(CC(=O)O)c2nccs2)c1 (stereo not shown) [compound 35]	409
COc1cccc(CO)c1-c1cccc(C(CC(=O)O)c2nnc(C)o2)c1 (stereo not shown) [compound 150]	325
COc1cc(C)cc(OC)c1-c1cccc(C(CC(=O)O)c2nnc(C)o2)c1 (stereo not shown) [compound 137]	24
COc1ccc(OC)c(-c2cccc(C(CC(=O)O)c3nccs3)c2)c1 (stereo not shown) [compound 21]	129
COc1ccc(OC)c(-c2cc(F)cc(C(CC(=O)O)c3ncc(C)s3)c2)c1 (stereo not shown) [compound 112]	122
COc1c(C)cccc1-c1cccc(C(CC(=O)O)c2nccs2)c1 (stereo not shown) [compound 40]	844
COc1ccc(Cl)cc1-c1cncc(C(CC(=O)O)c2nnc(C)o2)c1 (stereo not shown) [compound 191]	3910

From patent publication US9150526B2, “Biaryl-propionic acid derivatives and their use as pharmaceuticals” (SANOFI, priority 2013, dated 2015)
